Source: ChEMBL document CHEMBL2069271, “Design, synthesis, stereochemistry and antioxidant properties of various 7-alkylated 2,4-diaryl-3-azabicyclo[3.3.1]nonan-9-ones” (Bioorg Med Chem Lett, 2012)

Tests used:
[1] = tested on: Radical scavenging activity; test: Antioxidant activity assessed as inhibition of DPPH radical generation relative to alpha-tocopherol; type: functional; set-up: scale not given: the % may be the effect or the level left
[2] = tested on: Radical scavenging activity; test: Antioxidant activity assessed as inhibition of DPPH radical generation; type: functional
[3] = Oral bioavailability in rat at 500 mg/kg; type: ADME, organism-based; details: in vivo

IC50 [2]	bioavailability [3]	SMILES	Activity [1]
–	–	COc1cc(C2NC(c3cc(OC)c(OC)c(OC)c3)C3CC(C)CC2C3=O)cc(OC)c1OC (stereo unspecified)	20%
–	–	COc1ccc(C2NC(c3ccc(OC)c(OC)c3)C3CC(C)CC2C3=O)cc1OC (stereo unspecified)	20%
–	–	COc1ccc(OC)c(C2NC(c3cc(OC)ccc3OC)C3CC(C)CC2C3=O)c1 (stereo unspecified)	20%
59 µM	–	Cc1c(C)c2c(c(C)c1O)CC[C@@](C)(CCC[C@H](C)CCC[C@H](C)CCCC(C)C)O2 [ALPHA-TOCOPHEROL]	–
35.1 µM	1%	COc1cc(/C=C/C(=O)CC(=O)/C=C/c2ccc(O)c(OC)c2)ccc1O [CURCUMIN]	–
